Data: PubChem BioAssay (NCI)
Values joined by “and” are separate entries in the source; they are usually repeats but may differ in a detail not shown here. Equal entries are not always repeated.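 Tested at 5 concentrations; 48 h exposure; 96-well plates; endpoints linearly interpolated, else capped at highest concentration. Abbreviation: GI50, concentration required for 50% inhibition of growth. Definition used: TGI = concentration required for complete inhibition of growth.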

Legend:
Experiment in all cases: NCI-60 cell line screen, 48 h
SR leukemia = tested on: SR leukemia
SF-295 CNS = tested on: SF-295 CNS
CCRF-CEM leukemia = tested on: CCRF-CEM leukemia
HL-60(TB) leukemia = tested on: HL-60(TB) leukemia
BT-549 breast = tested on: BT-549 breast
UO-31 renal = tested on: UO-31 renal
NCI-H226 lung = tested on: NCI-H226 lung
SF-539 CNS = tested on: SF-539 CNS
HCC-2998 colon = tested on: HCC-2998 colon
A498 renal = tested on: A498 renal

SMILES	GI50 (SR leukemia)	TGI (SR leukemia)	GI50 (SF-295 CNS)	TGI (SF-295 CNS)	GI50 (CCRF-CEM leukemia)	TGI (CCRF-CEM leukemia)	GI50 (HL-60(TB) leukemia)	TGI (HL-60(TB) leukemia)	GI50 (BT-549 breast)	TGI (BT-549 breast)	GI50 (UO-31 renal)	TGI (UO-31 renal)	GI50 (NCI-H226 lung)	TGI (NCI-H226 lung)	GI50 (SF-539 CNS)	TGI (SF-539 CNS)	GI50 (HCC-2998 colon)	TGI (HCC-2998 colon)	GI50 (A498 renal)	TGI (A498 renal)
C/C1=C\CC[C@@](C)(O)[C@@H]2C[C@H](CC/C(C)=C/CC1)C1(CC1)C(=O)O2	28 µM	76.9 µM	26.7 µM	85.6 µM	76.1 µM	> 100 µM	15.4 µM	33.4 µM	25.5 µM	69.7 µM	46.5 µM	> 100 µM	25.8 µM	76.2 µM	49.4 µM	> 100 µM	30.4 µM	66.6 µM	–	–
Fc1ccc2nc(-c3cc(-c4ccc5c(c4)OCO5)n[nH]3)[nH]c2c1	3.58 µM	> 100 µM	4.99 µM	> 81.3 µM	2.62 µM	> 44.7 µM	3.09 µM	55.5 µM	1.48 µM	> 25.9 µM	2.5 µM	> 24 µM	3.92 µM	40.5 µM	3.24 µM	31.2 µM	5.56 µM	> 72.8 µM	3.27 µM	> 100 µM
CCNCCNc1cc(-c2ccc(C#N)cc2)c(C#N)c2nc3ccccc3n12	2.59 µM	6.74 µM	1.79 µM	3.6 µM	2.49 µM	9.9 µM	1.87 µM	4.35 µM	1.9 µM	4.91 µM	1.62 µM	3.1 µM	2.59 µM	11.9 µM	1.77 µM	3.49 µM	6.04 µM	20.8 µM	3.73 µM	11.9 µM
CCn1c(-c2nonc2N)nc2ccncc21	> 25 µM	> 25 µM	> 25 µM	> 25 µM	> 25 µM	> 25 µM	> 25 µM	> 25 µM	> 25 µM	> 25 µM	> 25 µM	> 25 µM	> 25 µM	> 25 µM	> 25 µM	> 25 µM	> 25 µM	> 25 µM	> 25 µM	> 25 µM
Nc1cc(-c2ccc(Cl)cc2)nn1-c1nnc(/C=C/c2ccco2)c(=O)[nH]1	2.53 µM	> 100 µM	2.1 µM	27.7 µM	2.26 µM	> 41 µM	4.23 µM	> 28.6 µM	5.62 µM	55.5 µM	2.41 µM	22.6 µM	10.1 µM	67.4 µM	4.4 µM	22.4 µM	6.6 µM	> 84.5 µM	1.78 µM	6.9 µM
O=C(c1cccs1)C1NO[N+]([O-])=C1c1cccs1 (stereo not drawn)	2.08 µM	4.73 µM	6.07 µM	12.4 µM	1.23 µM	3.54 µM	–	–	9.41 µM	21.2 µM	0.27 µM	1.47 µM	9.9 µM	> 35.2 µM	1.86 µM	3.39 µM	17.2 µM	31.7 µM	1.95 µM	6.3 µM
C=CC1=C(C)C2=NC1=CC1=NC(=CC3=C(C)C4=C(O)[C@H](C(=O)OC)C(=C5NC(=C2)[C@@H](C)[C@@H]5CCC(=O)O)C4=N3)C(CC)=C1C	–	1.5 µM	–	6.01 µM	–	–	–	–	–	> 20.2 µM	–	11.7 µM	–	> 100 µM	–	4.63 µM	–	4.23 µM	–	–
COc1cccc2c(=O)c3c(sc12)c(NCCCNCCO)nc1ccccc13	1.45 µM	3.83 µM	1.71 µM	3.24 µM	1.53 µM	3.18 µM	1.73 µM	3.5 µM	5.29 µM	18.6 µM	1.03 µM	2.28 µM	1.6 µM	3.46 µM	1.68 µM	3.1 µM	1.59 µM	3.21 µM	1.56 µM	3.3 µM
Cc1c(C)c(CC(=O)N2CC2)c(C)c(C)c1CC(=O)N1CC1	–	4.79 µM	–	60.5 µM	–	> 48.8 µM	–	10.3 µM	–	51.4 µM	–	38.7 µM	–	43.6 µM	–	16.5 µM	–	25.2 µM	–	32.1 µM
Cc1cc2c(cc1Cl)S/C(=C/C(=O)O)C(Nc1cccc3nsnc13)=NS2(=O)=O	32.8 µM	> 100 µM	> 56.9 µM	> 71.5 µM	22.5 µM	> 81.9 µM	7.63 µM	> 32.5 µM	–	1.38 µM	> 51.1 µM	> 79.2 µM	32.1 µM	> 68 µM	–	–	–	–	> 100 µM	> 100 µM
CCOc1ccc(Nc2c3ccccc3nc3ccccc23)cc1	0.307 µM and 0.042 µM	6.89 µM and 1.11 µM	0.228 µM and 0.219 µM	1.11 µM and 0.956 µM	0.585 µM and 0.739 µM	> 31.7 µM and 3.26 µM	1.58 µM and 0.545 µM	5.15 µM and 2.54 µM	0.478 µM and 0.556 µM	9.51 µM and 10.2 µM	0.677 µM and 0.356 µM	3.99 µM and 3.74 µM	1.33 µM and 1.29 µM	3.83 µM and 4.06 µM	0.51 µM and 0.419 µM	11.8 µM and 10.2 µM	0.816 µM	2.78 µM and 0.65 µM	0.307 µM and 0.332 µM	6.81 µM and 3.02 µM
COc1ccc(C(=O)c2nc3ccccc3n2CC(=O)c2ccc(Cl)cc2)cc1	0.569 µM	–	2.5 µM	> 100 µM	2.24 µM	> 26.4 µM	0.958 µM	5.06 µM	4.11 µM	> 100 µM	7.04 µM	> 100 µM	> 28.4 µM	> 100 µM	2.85 µM	> 30.5 µM	3.94 µM	> 100 µM	4.07 µM	39.4 µM
COc1cccc(COc2cc(-n3cnc4ccccc43)sc2C(N)=O)c1	6.98 µM	> 25 µM	> 15.6 µM	> 25 µM	1.15 µM	> 25 µM	6.03 µM	> 25 µM	> 21 µM	> 25 µM	> 25 µM	> 25 µM	> 20.5 µM	> 25 µM	16 µM	> 25 µM	> 25 µM	> 25 µM	0.92 µM	> 25 µM
Cc1ccc(NC(=O)/C(Cc2cc(=O)oc3cc(O)ccc23)=N\NC(=O)C[N+](C)(C)C)cc1C	–	> 100 µM	–	> 100 µM	–	> 100 µM	–	> 100 µM	–	> 100 µM	–	> 100 µM	–	> 100 µM	–	> 100 µM	–	> 100 µM	–	> 100 µM
Cc1ccc(-n2nc(C(C)(C)C)cc2NC(=O)NCc2cc(F)ccc2Oc2ccc3c(cnn3CCO)c2)cc1	> 10 µM and 1.12 µM	> 10 µM and 4.33 µM	> 10 µM and 10.2 µM	> 100 µM	> 10 µM and 3.38 µM	> 69.7 µM	1.41 µM and 2.09 µM	> 10 µM and 10.1 µM	> 10 µM and 4.68 µM	> 96.1 µM	1.33 µM and 2.76 µM	> 55.5 µM	0.562 µM and 2.75 µM	> 100 µM	> 10 µM and 6.83 µM	> 93.1 µM	> 10 µM and 5.39 µM	> 48.8 µM	1.02 µM and 1.48 µM	9.34 µM and 6.97 µM
O=C(NCCN1CCNCC1)c1ccc(Nc2nc3ccccc3c3occc23)cc1	25 µM	43.8 µM	10.9 µM	30.5 µM	10.3 µM	28.5 µM	17.6 µM	33.5 µM	2.72 µM	18.2 µM	11.1 µM	27.9 µM	–	–	2.65 µM	6.36 µM	1.79 µM	3.9 µM	16.2 µM	36.3 µM
COc1ccc(F)c(F)c1C(=O)c1cnc(NC2CCN(S(C)(=O)=O)CC2)nc1N	0.188 µM and 0.114 µM	–	0.693 µM and 0.352 µM	> 100 µM	0.431 µM and 0.237 µM	> 8.34 µM	0.0672 µM	4.61 µM	1.52 µM and 1.02 µM	5.86 µM and 5.52 µM	0.779 µM and 0.36 µM	6.96 µM and > 9.24 µM	1.28 µM and 0.408 µM	> 24.4 µM	0.536 µM and 0.406 µM	3.13 µM and 3.07 µM	0.961 µM and 0.987 µM	> 26.8 µM and 5.65 µM	0.445 µM	2.08 µM
O=C(O)c1ccccc1C(=O)c1ccc2c(c1)Cc1ccccc1-2	–	> 100 µM	–	> 100 µM	–	–	–	–	–	> 100 µM	–	> 100 µM	–	> 100 µM	–	> 100 µM	–	88 µM	–	> 100 µM
COc1ccc2c(NCCCCCCNc3c4ccccc4nc4cc(OC)ccc34)c3ccccc3nc2c1	–	1.54 µM	–	2.04 µM	–	0.549 µM	–	0.379 µM	–	3.18 µM	–	37.5 µM	–	3.49 µM	–	1.03 µM	–	0.451 µM	–	–
c1cnn2ncc(-c3ccnc(Nc4ccc5c(c4)OCCO5)n3)c2c1	0.0466 µM	–	0.0799 µM	0.987 µM	0.0879 µM	> 25 µM	0.0423 µM	0.155 µM	0.0588 µM	0.2 µM	0.0917 µM	> 25 µM	–	–	0.0679 µM	0.222 µM	0.0911 µM	0.514 µM	0.0492 µM	0.128 µM
COc1ccc(Nc2nccc(N3CCN(c4c5ccc(Cl)cc5nc5ccc(OC)cc45)CC3)n2)cc1	2.92 µM	> 100 µM	10.7 µM	42.3 µM	2.77 µM	> 100 µM	7.22 µM	> 100 µM	14.4 µM	> 100 µM	8.26 µM	> 100 µM	29.7 µM	> 100 µM	22.7 µM	> 100 µM	23.5 µM	> 100 µM	2.4 µM	31 µM
CC(C)Oc1ccc(C(=O)Cn2ccnc2)cc1-n1c(CN2CCN(C(=O)COc3ccc(Cl)cc3)CC2)nc2ccccc2c1=O	5.64 µM	36.8 µM	14.8 µM	31.6 µM	11 µM	> 100 µM	2.3 µM	27.7 µM	13.5 µM	30.9 µM	1.56 µM	2.98 µM	14.5 µM	38.9 µM	14.4 µM	30.4 µM	15.7 µM	31 µM	14.1 µM	28.6 µM
Cc1cccc(N=Nc2ccc(N=Nc3c(O)ccc4ccccc34)cc2C)c1	–	49.5 µM	–	> 100 µM	–	> 100 µM	–	> 100 µM	–	> 100 µM	–	> 100 µM	–	> 100 µM	–	> 100 µM	–	> 100 µM	–	–
O=C(Cl)C1=C(c2ccccc2)C1c1ccccc1 (stereo not drawn)	–	> 100 µM	–	> 100 µM	–	> 100 µM	–	> 100 µM	–	> 100 µM	–	–	–	> 100 µM	–	> 100 µM	–	> 100 µM	–	> 100 µM
CC1c2ccccc2N=C2SC(=S)N3CCN=C3N21 (stereo not drawn)	> 100 µM	> 100 µM	97.8 µM	> 100 µM	> 100 µM	> 100 µM	> 100 µM	> 100 µM	> 100 µM	> 100 µM	> 100 µM	> 100 µM	> 100 µM	> 100 µM	> 100 µM	> 100 µM	> 100 µM	> 100 µM	–	–
[2H]c1nc(=Nc2cc(NC(=O)C=C)c(N(C)CCN(C)C)cc2OC)[nH]c(-c2cn(C([2H])([2H])[2H])c3ccccc23)c1[2H]	1.23 µM	4.02 µM	1.97 µM	4.5 µM	–	–	0.848 µM	2.5 µM	1.52 µM	3.25 µM	0.943 µM	2.25 µM	2.45 µM	26 µM	1.47 µM	2.96 µM	1.44 µM	2.8 µM	1.21 µM	4.56 µM
COc1cc(C2c3cc4c(cc3[C@@H](Nc3ccc5c(c3)OCCO5)C3COC(=O)[C@H]23)OCO4)cc(OC)c1O (stereo partly drawn)	–	–	–	4.25 µM	–	2.28 µM	–	0.241 µM	–	16.4 µM	–	12.9 µM	–	1.94 µM	–	5.07 µM	–	3.65 µM	–	1.42 µM
C=C1C(=O)C23C(O)C1CC[C@H]2C12CCCC(C)(COC(C)=O)[C@H]1[C@H](O)[C@]3(O)OC2 (stereo partly drawn)	–	–	–	2.41 µM	–	1.16 µM	–	1.04 µM	–	2.86 µM	–	3.35 µM	–	5.7 µM	–	3.07 µM	–	3.32 µM	–	6.77 µM
CSc1ccc(N(C)c2nc(C)nc3c2CCC3)cc1	< 0.01 µM	11.6 µM	< 0.01 µM	12.2 µM	< 0.01 µM	94.7 µM	< 0.01 µM	< 0.01 µM	< 0.01 µM	< 0.01 µM	–	–	< 0.01 µM	> 100 µM	< 0.01 µM	< 0.01 µM	< 0.01 µM	10.8 µM	< 0.01 µM	< 0.01 µM
